# Patent publication US5990146A, “Benzimidazoles for inhibiting protein tyrosine kinase mediated cellular proliferation” (Warner-Lambert Company, priority 1998, dated 1999)
# Counter-ions that a name gives are not always drawn.
# Columns and labels:
# [1] = molecular target: T1, PDGF receptor tyrosine kinase (mouse PDGF-β) (Mus musculus, UniProt P05622); experiment: PDGFr tyrosine kinase assay (poly glutamate-tyrosine phosphorylation); type: biochemical; details: Table 1; 10 minutes at 25° C.
# T1 construct: PCR primers are designed to amplify a fragment of DNA that codes for the intracellular tyrosine kinase domain; made in house; host or cells: Sf9 insect cells (baculovirus), cell lysate
# T1 sequence (P05622 599-961 limits assumed): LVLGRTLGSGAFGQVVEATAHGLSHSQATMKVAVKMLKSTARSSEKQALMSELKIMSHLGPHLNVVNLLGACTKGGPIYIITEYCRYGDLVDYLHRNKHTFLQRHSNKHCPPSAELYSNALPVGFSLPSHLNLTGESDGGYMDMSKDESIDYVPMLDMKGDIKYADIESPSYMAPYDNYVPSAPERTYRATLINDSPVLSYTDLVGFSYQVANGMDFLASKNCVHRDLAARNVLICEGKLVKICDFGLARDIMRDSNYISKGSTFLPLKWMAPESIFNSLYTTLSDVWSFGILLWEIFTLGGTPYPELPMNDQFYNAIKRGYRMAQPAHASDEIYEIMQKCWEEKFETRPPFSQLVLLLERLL
# Procedure: Platelet Derived Growth Factor Receptor (PDGFr) and Fibroblast Growth Factor Receptor (FGFr)
# Full length cDNAs for the mouse PDGF-β and human FGF-1 (flg) receptor tyrosine kinases were obtained from J. Escobedo and are prepared as described in J. Biol. Chem., 262: 1482-1487 (1991). PCR primers are designed to amplify a fragment of DNA that codes for the intracellular tyrosine kinase domain. The fragment is melded into a baculovirus vector, cotransfected with AcMNPV DNA, and the recombinant virus isolated. SF9 insect cells are infected with the virus to overexpress the protein, and the cell lysate is used for the assay.
# The assay is performed in 96-well plates (100 μL/incubation/well), and conditions are optimized to measure the incorporation of ^32 p from [γ^32 P]-ATP into a glutamate-tyrosine copolymer substrate. Briefly, to each well is added 82.5 μL of incubation buffer containing 25 mM Hepes (pH 7.0), 150 mM NaCl, 0.1% Triton X-100, 0.2 mM PMSF, 0.2 mM sodium vanadate, 10 mM manganese chloride, and 750 μg/mL of poly (4:1) glutamate-tyrosine followed by 2.5 μL of inhibitor and 5 μL of enzyme lysate (7.5 μg/μL FGFR-TK or 6.0 μg/μL PDGFR-TK) to initiate the reaction. Following a 10 minute incubation at 25° C., 10 μL of [γ^32 P]-ATP (0.4 μCi plus 50 μM ATP) is added to each well and samples are incubated for an additional 10 minutes at 25° C. The reaction is terminated by the addition of 100 μL of 30% trichloroacetic acid (TCA) containing 20 mM sodium pyrophosphate and precipitation of material onto glass fiber filter mats (Wallac). Filters are washed 3 times with 15% TCA containing 100 mM sodium pyrophosphate and the radioactivity retained on the filters counted in a Wallac 1250 Betaplate reader. Nonspecific activity is defined as radioactivity retained on the filters following incubation of samples with buffer alone (no enzyme). Specific enzymatic activity is defined as total activity (enzyme plus buffer) minus nonspecific activity.
# insulin receptor (INSr) = molecular target: T2, insulin receptor (INSr) (Homo sapiens, UniProt P06213); experiment: Insulin receptor kinase assay; type: biochemical; details: Table 1; as for EGF receptor with 10 mM manganese chloride
# T2 construct: An assay using the intracellular kinase domains of insulin receptor (INSr) is performed
# T2 sequence (P06213 1023-1298 limits assumed, species assumed): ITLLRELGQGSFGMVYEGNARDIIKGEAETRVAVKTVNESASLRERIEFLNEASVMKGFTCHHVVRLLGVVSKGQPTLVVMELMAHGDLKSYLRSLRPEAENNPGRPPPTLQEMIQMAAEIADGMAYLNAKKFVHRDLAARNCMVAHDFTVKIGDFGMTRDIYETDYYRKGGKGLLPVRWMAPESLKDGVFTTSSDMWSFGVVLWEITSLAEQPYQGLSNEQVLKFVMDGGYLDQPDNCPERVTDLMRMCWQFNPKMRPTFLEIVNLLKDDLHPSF
# c-Src = molecular target: T3, c-Src (Homo sapiens, UniProt P12931); experiment: c-Src kinase assay; type: biochemical; details: Table 1; 5 μM ATP, room temperature, 10 minutes
# T3 construct: made in house; host or cells: baculovirus infected insect cells
# T3 sequence (P12931 whole entry, species assumed): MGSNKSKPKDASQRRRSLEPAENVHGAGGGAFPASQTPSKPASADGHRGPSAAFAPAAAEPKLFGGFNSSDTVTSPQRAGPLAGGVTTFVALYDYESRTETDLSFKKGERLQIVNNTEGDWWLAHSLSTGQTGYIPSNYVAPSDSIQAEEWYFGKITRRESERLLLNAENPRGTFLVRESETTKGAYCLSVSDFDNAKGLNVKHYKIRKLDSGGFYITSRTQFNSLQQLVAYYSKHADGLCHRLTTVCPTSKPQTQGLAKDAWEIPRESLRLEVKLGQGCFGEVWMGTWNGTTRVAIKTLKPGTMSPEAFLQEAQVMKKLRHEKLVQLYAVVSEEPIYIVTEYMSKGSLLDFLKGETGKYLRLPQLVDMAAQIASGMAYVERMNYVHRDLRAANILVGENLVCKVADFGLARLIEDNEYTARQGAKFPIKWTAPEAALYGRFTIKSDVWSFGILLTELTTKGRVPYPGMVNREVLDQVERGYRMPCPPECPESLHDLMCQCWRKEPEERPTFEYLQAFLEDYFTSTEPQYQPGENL
# Procedure: c-Src kinase is purified from baculovirus infected insect cell lysates using an antipeptide monoclonal antibody directed against the N-terminal 2-17 amino acids as described previously by Fry, et al, Anticancer Drug Design. 9: 331-351 (1994). […] At the end of the lysate incubation, the beads are rinsed 3 times in lysis buffer, resuspended in lysis buffer containing 10% glycerol, and frozen. These latex beads are thawed, rinsed 3 times in assay buffer which is comprised of 40 mM tris pH 7.5, 5 mM magnesium chloride, and suspended in the same buffer. […] The reaction is started at room temperature by addition of the ATP and quenched 10 minutes later by the addition of 125 μL of 30% TCA, 0.1 M sodium pyrophosphate for 15 minutes on ice. The plate is then filtered and the wells washed with two 250-μL aliquots of 15% TCA, 0.1 M pyrophosphate. The filters are punched, counted in a liquid scintillation counter, and the data examined for inhibitory activity in comparison to a known inhibitor such as erbstatin. The method is described more fully in J. Med. Chem., 37: 598-609 (1994).
# [2] = molecular target: T4, Human EGF receptor tyrosine kinase (Homo sapiens, UniProt P00533); experiment: EGFr tyrosine kinase assay; type: biochemical; details: Table 1; 10 μM ATP, 25° C., 10 minutes
# T4 construct: Human EGF receptor tyrosine kinase is isolated from A431 human epidermoid carcinoma cells; endogenous in cells; host or cells: A431 human epidermoid carcinoma cells (detergent lysate, fast Q sepharose fractions)
# T4 sequence (P00533 25-1210): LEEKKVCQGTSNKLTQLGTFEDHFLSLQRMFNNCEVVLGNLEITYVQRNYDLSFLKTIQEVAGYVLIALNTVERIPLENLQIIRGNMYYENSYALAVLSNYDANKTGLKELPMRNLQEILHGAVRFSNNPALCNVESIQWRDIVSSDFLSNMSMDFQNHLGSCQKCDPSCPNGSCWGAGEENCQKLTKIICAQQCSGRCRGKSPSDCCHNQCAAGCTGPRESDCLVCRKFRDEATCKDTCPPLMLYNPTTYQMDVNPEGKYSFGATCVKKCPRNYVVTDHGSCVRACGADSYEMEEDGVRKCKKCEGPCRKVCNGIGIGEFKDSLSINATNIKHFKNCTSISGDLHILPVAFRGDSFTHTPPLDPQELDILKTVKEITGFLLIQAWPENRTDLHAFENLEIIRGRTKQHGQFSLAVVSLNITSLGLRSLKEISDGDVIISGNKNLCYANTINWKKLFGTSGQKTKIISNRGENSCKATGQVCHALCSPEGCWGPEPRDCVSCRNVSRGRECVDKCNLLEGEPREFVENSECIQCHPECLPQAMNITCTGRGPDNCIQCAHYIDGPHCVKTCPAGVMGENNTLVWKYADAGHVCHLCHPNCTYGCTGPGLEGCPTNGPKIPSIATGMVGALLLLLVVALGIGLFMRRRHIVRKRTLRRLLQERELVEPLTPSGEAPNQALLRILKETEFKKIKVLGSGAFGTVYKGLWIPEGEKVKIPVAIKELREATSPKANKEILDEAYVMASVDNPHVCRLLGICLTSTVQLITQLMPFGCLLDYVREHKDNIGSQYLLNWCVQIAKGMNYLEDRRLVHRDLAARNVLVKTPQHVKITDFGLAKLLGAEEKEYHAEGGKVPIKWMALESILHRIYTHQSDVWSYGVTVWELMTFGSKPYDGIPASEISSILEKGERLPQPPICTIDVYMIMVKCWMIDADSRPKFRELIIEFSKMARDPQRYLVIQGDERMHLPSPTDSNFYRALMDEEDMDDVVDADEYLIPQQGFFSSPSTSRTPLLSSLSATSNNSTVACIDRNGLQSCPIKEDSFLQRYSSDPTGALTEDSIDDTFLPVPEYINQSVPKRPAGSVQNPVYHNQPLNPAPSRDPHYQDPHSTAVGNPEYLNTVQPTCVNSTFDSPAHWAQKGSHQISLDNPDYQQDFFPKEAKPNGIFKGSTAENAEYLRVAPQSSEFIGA
# [3] = molecular target: T5, FGF receptor tyrosine kinase (human FGF-1 (flg)) (Homo sapiens, UniProt P11362); experiment: FGFr tyrosine kinase assay (poly glutamate-tyrosine phosphorylation); type: biochemical; details: Table 1; 10 minutes at 25° C.
# T5 construct: PCR primers are designed to amplify a fragment of DNA that codes for the intracellular tyrosine kinase domain; made in house; host or cells: Sf9 insect cells (baculovirus), cell lysate
# T5 sequence (P11362 478-767 limits assumed): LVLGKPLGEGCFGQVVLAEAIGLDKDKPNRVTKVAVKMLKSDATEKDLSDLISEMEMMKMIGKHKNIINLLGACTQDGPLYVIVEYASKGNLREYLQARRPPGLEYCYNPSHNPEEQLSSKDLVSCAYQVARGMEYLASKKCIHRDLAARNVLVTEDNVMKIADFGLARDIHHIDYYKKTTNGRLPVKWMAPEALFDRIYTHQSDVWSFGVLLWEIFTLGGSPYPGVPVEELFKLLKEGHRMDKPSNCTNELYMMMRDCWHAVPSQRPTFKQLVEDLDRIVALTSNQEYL
# Procedure: Platelet Derived Growth Factor Receptor (PDGFr) and Fibroblast Growth Factor Receptor (FGFr) Full length cDNAs for the mouse PDGF-β and human FGF-1 (flg) receptor tyrosine kinases were obtained from J. Escobedo and are prepared as described in J. Biol. Chem., 262: 1482-1487 (1991). PCR primers are designed to amplify a fragment of DNA that codes for the intracellular tyrosine kinase domain. The fragment is […] into a baculovirus vector, cotransfected with AcMNPV DNA, and the recombinant virus isolated. SF9 insect cells are infected with the virus to overexpress the protein, and the cell lysate is used for the […] and FGFr The assay is performed in 96-well plates (100 μL/incubation/well), and conditions are optimized to measure the incorporation of ^32 p from [γ^32 P]-ATP into a glutamate-tyrosine copolymer substrate. […] The reaction is terminated by the addition of 100 μL of 30% trichloroacetic acid (TCA) containing 20 mM sodium pyrophosphate and precipitation of material onto glass fiber filter mats (Wallac). Filters are washed 3 times with 15% TCA containing 100 mM sodium pyrophosphate and the radioactivity retained on the filters counted in a Wallac 1250 Betaplate reader. Nonspecific activity is defined as radioactivity retained on the filters following incubation of samples with buffer alone (no enzyme). Specific enzymatic activity is defined as total activity (enzyme plus buffer) minus nonspecific activity.
# [4] = system: PDGF receptor autophosphorylation in rat aorta smooth muscle cells; experiment: PDGF Receptor Autophosphorylation Assay in rat aorta smooth muscle cells; type: cell-based; details: Table 2, PDGF-BB 30 ng/mL, 2 hours pre-incubation, read-out: IC50, inhibition of PDGF-stimulated receptor autophosphorylation
# Procedure: Rat aorta smooth muscle cells (RASMC) are isolated from the thoracic aorta of rats and explanted according to the method of Ross, J. Cell. […] Cells are grown in Dulbecco's modified Eagle's medium (DMEM, Gibco) containing 10% fetal calf serum (FBS, Hyclone, Logan, Utah), 1% glutamine (Gibco) and 1% penicillin/streptomycin (Gibco). Cells are identified as smooth muscle cells by their "hill and valley" growth pattern and by fluorescent staining with a monoclonal antibody specific for SMC μ-actin (Sigma). RASMC are used between passages 5 and 20 for all experiments. Test compounds are prepared in dimethylsulfoxide (DMSO) in order to achieve consistency in the vehicle and to ensure compound solubility. Appropriate DMSO controls are simultaneously evaluated with the test compounds.
# Rat aortic smooth muscle cells are grown to confluencey in 100 mm dishes. Growth medium is removed and replaced with serum-free medium and cells are incubated at 37° C. for an additional 24 hours. Test compounds are then added directly to the medium and cells incubated for an additional 2 hours. After 2 hours PDGF-BB is added at a final concentration of 30 ng/mL for 5 minutes at 37° C. to stimulate autophosphorylation of PDGF receptors. Following growth factor treatment, the medium is removed, and cells are washed with cold phosphate-buffered saline and immediately lysed with 1 mL of lysis buffer (50 mM Hepes, pH 7.5, 150 mM NaCl, 10% glycerol, 1% Triton-X 100, 1 mM EDTA, 1 mM EGTA, 50 mM NaF, 1 mM sodium orthovanadate, 30 mM p-nitrophenyl phosphate, 10 mM sodium pyrophosphate, 1 mM phenylmethyl sulfonyl fluoride, 10 μg/mL aprotinin and 10 μg/mL leupeptin). Lysates are centrifuged at 10,000 ×g for 10 minutes. […] Following the incubation, protein-A-sepharose beads are added for 2 hours with continuous mixing, and immune complexes bound to the beads washed 4 times with 1 mL lysis wash buffer. Immune complexes are solubilized in 40 μL of Laemmli sample buffer and electrophoresed in 8-16% SDS polyacrylamide gels. Following electrophoresis, separated proteins are transferred to nitrocellulose and immunoblotted with a 1:1000 dilution of antiphosphotyrosine monoclonal antibody (UBI clone 4G10; #05-321). Following extensive washing with PBS-0.2% tween-20, the blots are incubated with horseradish peroxidase labeled goat antimouse IgG (1:5000; Bio-Rad Inc, Hercules, Calif.) and protein levels are detected by enhanced chemiluminescence (ECL) detection system according to the instructions of the supplier (Amersham Inc, Arlington Heights, Ill.). The density of the protein bands are determined using NIH Image software (v. 1.56) and IC50 values are generated from the densitometric data.
IC50 [1] [µM],IC50 (insulin receptor (INSr)) [µM],IC50 (c-Src) [µM],IC50 [2] [µM],IC50 [3] [µM],IC50 [4] [µM],Structure (SMILES)
13,> 50,> 50,> 50,–,–,"COC(=O)c1ccc2ncn(-c3ccccc3)c2c1 [Example 43, Methyl 1-phenylbenzimidazole-6-carboxylate Hydrochloride]"
4.4,> 50,> 50,50,> 50,–,"Cc1ccc2c(c1)ncn2-c1ccccc1 [Example 12, 5-Methyl-1-phenylbenzimidazole Hydrochloride]"
1.6,> 50,< 50,> 50,9.9,–,"NC(=O)c1ccc2c(c1)ncn2-c1ccccc1 [Example 18, 1-Phenylbenzimidazole-5-carboxamide Hydrochloride]"
7.2,> 50,> 50,> 50,> 50,–,"COC(=O)c1ccc(-n2cnc3ccccc32)cc1 [Example 7, 1-(4-Carbomethoxyphenyl)benzimidazole]"
0.4,> 50,–,> 50,6.4,–,"Oc1ccc2c(c1)ncn2-c1ccccc1 [Example 14, 5-Hydroxy-1-phenylbenzimidazole]"
11.7,> 50,> 50,< 50,> 50,–,"OCc1ccc2c(c1)ncn2-c1ccccc1 [Example 26, 5-(Hydroxymethyl)-1-phenylbenzimidazole]"
–,> 50,–,> 50,–,–,"c1ccc(-n2cnc3ccccc32)cc1 [Example 1, 1-Phenylbenzimidazole]"
2.7,> 50,> 50,> 50,36,–,"Nc1ccc2c(c1)ncn2-c1ccccc1 [Example 19, 5-Amino-1-phenylbenzimidazole]"
2.1,< 50,> 50,> 50,–,–,"Oc1ccc2ncn(-c3ccccc3)c2c1 [Example 41, 6-Hydroxy-1-phenylbenzimidazole Hydrochloride]"
0.8,> 50,> 50,> 50,6.6,–,"COC(=O)c1ccc2c(c1)ncn2-c1ccccc1 [Example 17, Methyl 1-Phenylbenzimidazole-5-carboxylate]"
3.3,> 50,< 50,–,32,–,"CC(=O)Nc1ccc2c(c1)ncn2-c1ccccc1 [Example 23, 5-Acetamido-1-phenylbenzimidazole Hydrochloride]"
8.4,> 50,50,< 50,50,–,"O=Cc1ccc2c(c1)ncn2-c1ccccc1 [Example 21, 1-Phenylbenzimidazole-5-carboxaldehyde]"
0.9,> 50,33,–,50,–,"COC(=O)c1cc2c(cc1OC)ncn2-c1ccccc1 [Example 51, Methyl 5-methoxy-1-phenylbenzimidazole-6-carboxylate Hydrochloride]"
5.6,–,–,–,–,> 10,"Nc1ccc(-n2cnc3ccccc32)cc1 [Example 8, 1-(4-Aminophenyl)benzimidazole Dihydrochloride]"
2.4,> 50,> 50,–,41,–,"CCC(=O)Nc1ccc2c(c1)ncn2-c1ccccc1 [Example 24, 5-Propionamido-1-phenylbenzimidazole Hydrochloride]"
3.6,> 50,> 50,> 50,–,–,"Nc1cccc(-n2cnc3ccccc32)c1 [Example 3, 1-(3-Aminophenyl)benzimidazole]"
0.7,> 50,< 50,–,27,–,"NCCOc1ccc2c(c1)ncn2-c1ccccc1 [Example 35, 5-(2-Aminoethoxy)-1-phenylbenzimidazole Dihydrochloride]"
6.8,> 50,> 50,–,> 50,–,"O=Cc1cccc(-n2cnc3ccccc32)c1 [Example 4, 1-(3-Formylphenyl)benzimidazole Hydrochloride]"
1.5,> 50,29,–,45,–,"CN(C)CCOc1ccc2c(c1)ncn2-c1ccccc1 [Example 36, 5-[2-(N,N-Dimethylamino)ethoxy]-1-phenylbenzimidazole Dihydrochloride]"
9.3,> 50,50,> 50,28,–,"O=C(O)c1ccc2c(c1)ncn2-c1ccccc1 [Example 16, 1-Phenylbenzimidazole-5-carboxylic Acid Hydrochloride]"
3.8,> 50,> 50,–,50,–,"Oc1cccc(-n2cnc3ccccc32)c1 [Example 2, 1-(3-Hydroxyphenyl)benzimidazole Hydrochloride]"
6.4,–,–,–,–,> 10,"COc1ccc2ncn(-c3ccccc3)c2c1 [Example 40, 6-Methoxy-1-phenylbenzimidazole]"

Structure (SMILES),IC50 [1] [µM],IC50 (insulin receptor (INSr)) [µM],IC50 (c-Src) [µM],IC50 [2] [µM],IC50 [3] [µM],IC50 [4] [µM]
"CC(=O)Oc1ccc2c(c1)ncn2-c1ccccc1 [Example 27, 5-Acetoxy-1-phenylbenzimidazole]",1.8,> 50,> 50,> 50,26,–
